Experiments:
[1] = system: HGF production of MRC-5 cells; experiment: enhancing activity for HGF production: MRC-5 cells cultured 24 h with sample, HGF in medium by ELISA; assay type: cell-based, human; settings: for Amount of HGF Produced: control = 100%
Procedure: (1) The enhancing activity for HGF production of each of the bamboo blade extract (sample (1)) prepared in item (1) of Example 1, and the lower layer fraction (sample (2)) and the upper layer fraction (sample (3)) prepared in item (2) of Example 1 was assayed. Five-hundred microliters each of MRC-5 cells (CCL 171: manufactured by DAINIPPON PHARMACEUTICAL CO., LTD., code. 02-021) suspended in a DME medium containing 10% fetal bovine serum so as to have a concentration of 1×10^5 cells/ml were added into each well of a 48-well cell culture plate. The cells were cultured at 37° C. for 24 hours in the presence of 5% CO2, and then the medium was exchanged for a DME medium containing 1% fetal bovine serum. Thereafter, the sample was added to the medium, and the cells were further cultured for 24 hours. The medium was then collected, and by using Quantikine Human Hepatocyte Growth Factor (HGF) ELISA Kit (manufactured by Funakoshi, Code. RS-0641-00), the amount of HGF in the medium was determined. The amount of HGF produced was expressed, assuming that the value of the negative control is 100%. […] As the negative control, distilled water was added in the same volume as that of the sample. The amount of HGF produced was expressed, assuming that the value of the negative control is 100%. The results for the sample (1) are shown in Table 1, and the results for the sample (2) and the sample (3) are shown in Table 2. Each experiment was carried out twice, and its average value was taken. […] From the above, it was shown that the bamboo blade extract has an enhancing activity for HGF production.

[2] = system: NGF production of L-M cells; experiment: enhancing activity for NGF production: L-M cells cultured 20 h with sample, NGF in medium by enzyme immunoassay; assay type: cell-based, murine; settings: for Amount of NGF Produced: control = 100%; for enhancing activity for NGF production: result in words, no value given
Procedure: L-M cells (ATCC CCL-1.2) from murine fibroblasts were suspended in an M199 medium (manufactured by ICN) containing 0.5% bactopeptone (manufactured by Gibco) so as to have a concentration of 1.5×10^5 cells/ml. The suspension was put in a 96 well plate in an amount of 0.1 ml each well, and the cells were aseptically cultured. After culturing the cells for 3 days, the medium was removed therefrom, and exchanged with an M199 medium containing 0.5% bovine serum albumin (manufactured by Sigma). […] After the termination of the culture, the concentration of the nerve growth factor in the culture medium was assayed by an enzyme immunoassay method (NGF Emax Immuno Assay System, manufactured by Promega). The enhancement for NGF production was expressed, assuming that the NGF concentration in the cell culture medium with no addition of the sample is 100%. The experiment was carried out twice, and an average value was taken. As a result, the yellow pigment from Carthamus tinctorius enhanced NGF production of the L-M cells in a concentration dependent manner.

O=C(/C=C/c1ccc(O)c(O)c1)O[C@@H]1CC(O)(C(=O)O)C[C@@H](OC(=O)/C=C/c2ccc(O)c(O)c2)C1O (stereo partly drawn) [3,5-Dicaffeoyl-quinic Acid, 3,5-dicaffeoyl-quinic acid]
Amount of HGF Produced ([1]; 1 μM): 142%
Amount of HGF Produced ([1]; 10 μM): 206%
Amount of HGF Produced ([1]; 100 μM): 290%

CC1(C)Oc2ccc3ccc(=O)oc3c2C(O)C1OC1OC(CO)C(O)C(O)C1O [10 (62.2), 3′-O-β-D-glucopyranoyl khellactone]
Amount of NGF Produced ([2]; 2.0 mg/ml): 565.5%

CC(C)=CCc1c(O[C@@H]2O[C@H](CO)[C@@H](O)[C@H](O)[C@H]2O)ccc2ccc(=O)oc12 [13-2 (8.7), 7-O-β-D-glucopyranosyloxy-8-prenylcoumarin]
Amount of NGF Produced ([2]; 1.0 mg/ml): 792.1%

COC(=O)/C=C/c1ccc(O)c(O)c1 [18-3 (10.6), caffeic acid methyl ester]
Amount of NGF Produced ([2]; 0.25 mg/ml): 3039.6%

COc1ccc(C(=O)O)c2c1CC(O)C(C)(C)O2 (stereo not drawn) [18-4 (10.9), 8-carboxyl-3-hydroxy-5-methoxyl-2-dimethylchroman]
Amount of NGF Produced ([2]; 0.0375 mg/ml): 2510.4%

CC(C)=CCc1cc2ccc(=O)oc2cc1O[C@@H]1O[C@H](CO)[C@@H](O)[C@H](O)[C@H]1O [19-, 20-5 (16.4), 7-β-D-glucopyranosyloxy-6-prenylcoumarin]
Amount of NGF Produced ([2]; 1.0 mg/ml): 487.9%

C/C=C(/C)C(=O)OC1c2c(ccc3ccc(=O)oc23)OC(C)(C)C1O[C@@H]1O[C@H](CO[C@@H]2O[C@H](CO)[C@@H](O)[C@H](O)[C@H]2O)[C@@H](O)[C@H](O)[C@H]1O (stereo partly drawn) [19-, 20-6 (18.8), 4′-O-angeloyl-3′-O-[6-O-(β-D-glucopyranosyl)-β-D-glucopyranosyl]-khellactone]
Amount of NGF Produced ([2]; 1.0 mg/ml): 337.7%

CCOC(=O)/C=C/c1ccc(O)c(O)c1 [28 (91.4), caffeic acid ethyl ester]
Amount of NGF Produced ([2]; 0.05 mg/ml): 1058.1%

CCOC(=O)/C=C/c1ccc(O)c(O)c1 [Caffeic acid ethyl ester, caffeic acid ethyl ester]
Amount of NGF Produced ([2]; 62.5 μg/ml): 1279.1%

COC(=O)/C=C/c1ccc(O)c(O)c1 [Caffeic acid methyl ester, caffeic acid methyl ester]
Amount of NGF Produced ([2]; 62.5 μg/ml): 824.4%

O=C(/C=C/c1ccc(O)c(O)c1)O[C@@H]1C[C@](O)(C(=O)O)C[C@@H](O)[C@H]1O [Chlorogenic Acid, chlorogenic acid]
Amount of HGF Produced ([1]; 1 μM): 105%
Amount of HGF Produced ([1]; 10 μM): 122%
Amount of HGF Produced ([1]; 100 μM): 302%
Amount of HGF Produced ([1]; 500 μM): 479%
Amount of HGF Produced ([1]; 1000 μM): 624%
enhancing activity for HGF production ([1]; result in words, no value given): enhancing activity for HGF production existed

COc1cc(O)c(CC=C(C)C)c2c1C(=O)CC(c1ccc(O)cc1)O2 (stereo not drawn) [Isoxanthohumol, isoxanthohumol]
Amount of NGF Produced ([2]; 50 μM): 110.7%
Amount of NGF Produced ([2]; 100 μM): 121.4%
Amount of NGF Produced ([2]; 200 μM): 198.0%

O=C1C([C@@H]2O[C@H](CO)[C@@H](O)[C@H](O)[C@H]2O)=C(O)/C(=C(O)/C=C/c2ccc(O)cc2)C(=O)C1(O)[C@@H]1O[C@H](CO)[C@@H](O)[C@H](O)[C@H]1O (stereo partly drawn) [Safflomin A, safflomin A]
Amount of NGF Produced ([2]; 2.5 mg/ml): 130.7%
enhancing activity for NGF production [2]: has the enhancing activity for NGF production

CC(C)=CCC/C(C)=C/Cc1c(O)ccc(C(=O)/C=C/c2ccc(O)cc2)c1O [Xanthoangelol, xanthoangelol]
Amount of NGF Produced ([2]; 25 μM): 126.1%
Amount of NGF Produced ([2]; 50 μM): 202.6%
Amount of NGF Produced ([2]; 100 μM): 265.7%

COc1cc(O)c(CC=C(C)C)c(O)c1C(=O)/C=C/c1ccc(O)cc1 [Xanthohumol, xanthohumol]
Amount of NGF Produced ([2]; 12.5 μM): 235.5%
Amount of NGF Produced ([2]; 25 μM): 387.9%
Amount of NGF Produced ([2]; 50 μM): 443.0%
enhancing activity for NGF production [2]: has the activity

From patent US20060147558A1, “Remedies” (priority 2000, published 2006)
